Source: PubChem BioAssay AID256 (DTP/NCI, 2004)
Several values for one entry are separate records, joined by “and”; a condition that tells them apart may be missing. Equal values may be shown once. Toxic doses and inconclusive results are not listed.

System: CD2F1 mice, L1210 leukemia ip, survival T/C
Assay: NCI In Vivo Anticancer Drug Screen. Data for tumor model L1210 Leukemia (intraperitoneal) in CD2F1 (CDF1) mice
Conditions: higher = longer survival
Procedure, shortened: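 Ratio T/C, where T is the treated-group value and C the vehicle-dosed control value, from mice implanted with a transplantable tumor.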

## [N-]=[N+]=CC(=O)CCC(N)C(=O)O (configuration not stated)
endpoint: mean survival time, dose: 0.03 mg/kg/injection, schedule: Q01DX009 (ip), vehicle: saline
  T/C: 119 % of control
endpoint: mean survival time, dose: 0.05 mg/kg/injection, schedule: Q01DX009 (ip), vehicle: saline
  T/C: 116 % of control
endpoint: mean survival time, dose: 0.05 mg/kg/injection, schedule: Q01DX009 (oral), vehicle: saline
  T/C: 107 % of control
endpoint: mean survival time, dose: 0.05 mg/kg/injection, schedule: Q01DX009 (sc), vehicle: saline
  T/C: 117 % of control
endpoint: mean survival time, dose: 0.1 mg/kg/injection, schedule: Q03DX003 (ip), vehicle: saline
  T/C: 115 % of control
endpoint: mean survival time, dose: 0.1 mg/kg/injection, schedule: Q04DX003 (ip), vehicle: saline
  T/C: 117 % of control
endpoint: mean survival time, dose: 0.2 mg/kg/injection, schedule: Q01DX009 (oral), vehicle: saline
  T/C: 116 % of control
endpoint: mean survival time, dose: 0.2 mg/kg/injection, schedule: Q03DX003 (ip), vehicle: saline
  T/C: 118 % of control
endpoint: mean survival time, dose: 0.2 mg/kg/injection, schedule: Q04DX003 (ip), vehicle: saline
  T/C: 123 % of control
endpoint: mean survival time, dose: 0.4 mg/kg/injection, schedule: Q03HX024 (ip), vehicle: saline
  T/C: 162 % of control
endpoint: mean survival time, dose: 0.8 mg/kg/injection, schedule: Q01DX009 (sc), vehicle: saline
  T/C: 90 % of control
endpoint: mean survival time, dose: 0.8 mg/kg/injection, schedule: Q03HX024 (ip), vehicle: saline
  T/C: 102 % of control
endpoint: mean survival time, dose: 1.6 mg/kg/injection, schedule: Q03HX024 (ip), vehicle: saline
  T/C: 105 % of control
endpoint: mean survival time, dose: 3.1 mg/kg/injection, schedule: Q03HX016 (ip), vehicle: saline
  T/C: 119 % of control
endpoint: mean survival time, dose: 6.25 mg/kg/injection, schedule: Q03HX008 (ip), vehicle: saline
  T/C: 118 % of control
endpoint: mean survival time, dose: 6.25 mg/kg/injection, schedule: Q04DX003 (ip), vehicle: saline
  T/C: 156 % of control
endpoint: mean survival time, dose: 25.0 mg/kg/injection, schedule: Q04DX003 (ip), vehicle: saline
  T/C: 155 % of control
endpoint: mean survival time, dose: 25.0 mg/kg/injection, schedule: Q08DX002 (ip), vehicle: saline
  T/C: 150 % of control
endpoint: mean survival time, dose: 50.0 mg/kg/injection, schedule: Q01DX001 (ip), vehicle: saline
  T/C: 151 % of control
endpoint: mean survival time, dose: 50.0 mg/kg/injection, schedule: Q04DX003 (ip), vehicle: saline
  T/C: 122 % of control
endpoint: mean survival time, dose: 50.0 mg/kg/injection, schedule: Q08DX002 (ip), vehicle: saline
  T/C: 162 % of control
endpoint: mean survival time, dose: 100.0 mg/kg/injection, schedule: Q01DX001 (ip), vehicle: saline
  T/C: 151 % of control
endpoint: mean survival time, dose: 100.0 mg/kg/injection, schedule: Q01DX001 (oral), vehicle: saline
  T/C: 115 % of control
endpoint: mean survival time, dose: 100.0 mg/kg/injection, schedule: Q08DX002 (ip), vehicle: saline
  T/C: 155 % of control
endpoint: mean survival time, dose: 200.0 mg/kg/injection, schedule: Q01DX001 (oral), vehicle: saline
  T/C: 88 % of control
endpoint: mean survival time, dose: 200.0 mg/kg/injection, schedule: Q01DX001 (sc), vehicle: saline
  T/C: 110 % of control
endpoint: mean survival time, dose: 13.0 micrograms/kg/injection, schedule: Q01DX Z (ip), vehicle: saline
  T/C: 96 % of control
endpoint: mean survival time, dose: 25.0 micrograms/kg/injection, schedule: Q01DX Z (ip), vehicle: saline
  T/C: 94 % of control
endpoint: mean survival time, dose: 50.0 micrograms/kg/injection, schedule: Q01DX Z (ip), vehicle: saline
  T/C: 100 % of control
endpoint: mean survival time, dose: 93.7 micrograms/kg/injection, schedule: Q01DX009 (ip), vehicle: saline
  T/C: 124 % of control
endpoint: median survival time, dose: 0.06 mg/kg/injection, schedule: Q01DX009 (ip), vehicle: saline
  T/C: 119 % of control
endpoint: median survival time, dose: 0.25 mg/kg/injection, schedule: Q01DX009 (ip), vehicle: saline
  T/C: 118 % of control
endpoint: median survival time, dose: 0.39 mg/kg/injection, schedule: Q01DX009 (ip), vehicle: saline
  T/C: 98 % of control
endpoint: median survival time, dose: 0.5 mg/kg/injection, schedule: Q01DX009 (ip), vehicle: saline
  T/C: 102 % of control
endpoint: median survival time, dose: 0.8 mg/kg/injection, schedule: Q01DX009 (ip), vehicle: saline
  T/C: 94 % of control and 98 % of control
endpoint: median survival time, dose: 2.5 mg/kg/injection, schedule: Q04DX003 (ip), vehicle: saline
  T/C: 152 % of control
endpoint: median survival time, dose: 5.0 mg/kg/injection, schedule: Q04DX003 (ip), vehicle: saline
  T/C: 153 % of control and 163 % of control
endpoint: median survival time, dose: 10.0 mg/kg/injection, schedule: Q04DX003 (ip), vehicle: saline
  T/C: 167 % of control and 173 % of control
endpoint: median survival time, dose: 20.0 mg/kg/injection, schedule: Q04DX003 (ip), vehicle: saline
  T/C: 184 % of control and 189 % of control
endpoint: median survival time, dose: 40.0 mg/kg/injection, schedule: Q04DX003 (ip), vehicle: saline
  T/C: 195 % of control and 205 % of control
endpoint: median survival time, dose: 100.0 mg/kg/injection, schedule: Q01DX001 (ip), vehicle: saline
  T/C: 114 % of control

## CCc1ncnc2cc(OCC3CO3)c(OC)cc12 (configuration not stated)
endpoint: median survival time, dose: 6.25 mg/kg/injection, schedule: Q01DX009 (ip), vehicle: saline with Tween-80
  T/C: 109 % of control
endpoint: median survival time, dose: 6.25 mg/kg/injection, schedule: Q01DX009 (ip), vehicle: saline
  T/C: 112 % of control
endpoint: median survival time, dose: 7.5 mg/kg/injection, schedule: Q01DX009 (ip), vehicle: suspension in saline
  T/C: 123 % of control
endpoint: median survival time, dose: 10.0 mg/kg/injection, schedule: Q03DX003 (ip), vehicle: saline
  T/C: 154 % of control
endpoint: median survival time, dose: 12.5 mg/kg/injection, schedule: Q01DX009 (ip), vehicle: saline with Tween-80
  T/C: 116 % of control
endpoint: median survival time, dose: 12.5 mg/kg/injection, schedule: Q01DX009 (ip), vehicle: saline
  T/C: 121 % of control
endpoint: median survival time, dose: 20.0 mg/kg/injection, schedule: Q01DX009 (ip), vehicle: other
  T/C: 156 % of control
endpoint: median survival time, dose: 40.0 mg/kg/injection, schedule: Q01DX009 (ip), vehicle: other
  T/C: 166 % of control
endpoint: median survival time, dose: 40.0 mg/kg/injection, schedule: Q04DX003 (ip), vehicle: other
  T/C: 112 % of control
endpoint: median survival time, dose: 50.0 mg/kg/injection, schedule: Q01DX009 (ip), vehicle: DMSO
  T/C: 169 % of control
endpoint: median survival time, dose: 50.0 mg/kg/injection, schedule: Q03DX003 (ip), vehicle: saline
  T/C: 152 % of control and 169 % of control
endpoint: median survival time, dose: 80.0 mg/kg/injection, schedule: Q01DX001 (ip), vehicle: other
  T/C: 174 % of control
endpoint: median survival time, dose: 80.0 mg/kg/injection, schedule: Q01DX001 (ip), vehicle: water
  T/C: 178 % of control
endpoint: median survival time, dose: 80.0 mg/kg/injection, schedule: Q04DX003 (ip), vehicle: other
  T/C: 153 % of control
endpoint: median survival time, dose: 120.0 mg/kg/injection, schedule: Q01DX001 (ip), vehicle: other
  T/C: 182 % of control
endpoint: median survival time, dose: 120.0 mg/kg/injection, schedule: Q01DX001 (ip), vehicle: water
  T/C: 160 % of control
endpoint: median survival time, dose: 120.0 mg/kg/injection, schedule: Q04DX003 (ip), vehicle: other
  T/C: 150 % of control

## CC(C)(C)OC(=O)NNC(=O)c1ccc([N+](=O)[O-])cc1
endpoint: mean survival time, dose: 6.25 mg/kg/injection, schedule: Q01DX009 (ip), vehicle: alcohol
  T/C: 172 % of control
endpoint: mean survival time, dose: 12.5 mg/kg/injection, schedule: Q01DX009 (ip), vehicle: alcohol
  T/C: 100 % of control
endpoint: mean survival time, dose: 25.0 mg/kg/injection, schedule: Q01DX009 (ip), vehicle: alcohol
  T/C: 97 % of control

## COC(=O)C1CCC[N+](C)(C)C1 (configuration not stated)
endpoint: mean survival time, dose: 25.0 mg/kg/injection, schedule: Q01DX009 (ip), vehicle: saline
  T/C: 100 % of control
endpoint: mean survival time, dose: 50.0 mg/kg/injection, schedule: Q01DX009 (ip), vehicle: saline
  T/C: 93 % of control

## CCOC(=O)C(C)Sc1n[nH]c(=O)[nH]c1=O (configuration not stated)
endpoint: mean survival time, dose: 12.5 mg/kg/injection, schedule: Q01DX005 (ip), vehicle: distilled water + Tween-80
  T/C: 96 % of control
endpoint: mean survival time, dose: 25.0 mg/kg/injection, schedule: Q01DX005 (ip), vehicle: distilled water + Tween-80
  T/C: 96 % of control
endpoint: mean survival time, dose: 50.0 mg/kg/injection, schedule: Q01DX005 (ip), vehicle: distilled water + Tween-80
  T/C: 96 % of control
endpoint: mean survival time, dose: 100.0 mg/kg/injection, schedule: Q01DX005 (ip), vehicle: distilled water + Tween-80
  T/C: 92 % of control
endpoint: mean survival time, dose: 200.0 mg/kg/injection, schedule: Q01DX005 (ip), vehicle: distilled water + Tween-80
  T/C: 94 % of control

## CC1(C)CC=C(c2ccccc2)OC1c1ccccc1 (configuration not stated)
endpoint: mean survival time, dose: 100.0 mg/kg/injection, schedule: Q04DX002 (ip), vehicle: other
  T/C: 98 % of control
endpoint: mean survival time, dose: 200.0 mg/kg/injection, schedule: Q04DX002 (ip), vehicle: other
  T/C: 94 % of control
endpoint: mean survival time, dose: 400.0 mg/kg/injection, schedule: Q04DX002 (ip), vehicle: other
  T/C: 102 % of control

## CC(=O)c1c(O)c(C)c(O)c2c1OC1=CC(=O)C(C(C)=O)C(=O)C12C (configuration not stated)
endpoint: mean survival time, dose: 25.0 mg/kg/injection, schedule: Q01DX009 (ip), vehicle: Klucel (hydroxypropylcellulose) (HPC)
  T/C: 93 % of control
endpoint: mean survival time, dose: 50.0 mg/kg/injection, schedule: Q01DX009 (ip), vehicle: Klucel (hydroxypropylcellulose) (HPC)
  T/C: 93 % of control
endpoint: mean survival time, dose: 100.0 mg/kg/injection, schedule: Q01DX009 (ip), vehicle: Klucel (hydroxypropylcellulose) (HPC)
  T/C: 96 % of control

## CC(=O)C1C(c2ccccc2)=C(c2ccccc2)c2ccccc21 (configuration not stated)
endpoint: mean survival time, dose: 100.0 mg/kg/injection, schedule: Q01DX001 (ip), vehicle: saline with Tween-80
  T/C: 88 % of control
endpoint: mean survival time, dose: 200.0 mg/kg/injection, schedule: Q01DX001 (ip), vehicle: saline with Tween-80
  T/C: 92 % of control
endpoint: mean survival time, dose: 400.0 mg/kg/injection, schedule: Q01DX001 (ip), vehicle: saline with Tween-80
  T/C: 92 % of control
